Assay [1] deals with Pyricularia oryzae (rice blast). As to the kind of experiment: whole plant or invertebrate. In kind it is in vivo. As to conditions: Pyricularia oryzae, foliar, read-out: PYRIOR disease control, host rice; foliar spray; 400 ppm (+++: 100 ppm).
Assay [2] has as its system aster leafhopper (Macrosteles fascifrons). The assay is described as follows: whole plant or invertebrate. The note with it: Macrosteles fascifrons, 24 h, read-out: ALH percent mortality. In kind it is in vivo. The protocol: (§1) The compounds identified in Table I were tested for miticidal and insecticidal activity against eight species. The following abbreviations are used in the Table III:
ALH refers to aster leafhopper
(§2) In conducting evaluations of insecticidal activity, each test compound was formulated as a 400 ppm solution, and this solution was then diluted with water to give lesser concentrations. The 400 ppm solution was prepared by combining 19.2 mL of 0.05% solution of Tween 20 (polyoxyethylene (20) sorbitan monolaurate) in water with a solution of 8 mg of the compound in 0.8 mL of acetone/EtOH (9/1).
Activity against aster leafhopper (Macrosteles fascifrons) was tested as follows. The test was run using concentrations of 400 ppm and 50 ppm. One ounce plastic cups containing a cotton wick was sprayed with 0.4 mL of formulated material using a flat-fan nozzle. The excess moisture was allowed to evaporate. Then five to ten carbon dioxide anesthetized adult leafhoppers were added to each cup. The cups were capped and held at room temperature for 24 hours. Percent mortality was then determined.

For assay [3], the system named is beet armyworm (Spodoptera exiqua). The assay is described as follows: Activity against beet armyworm. The note with it: Spodoptera, 144 h, 6 days, read-out: BAW activity (rated on live and dead larvae and size of live larvae). In kind it is in vivo. The protocol: as §1
BAW refers to beet armyworm
as §2
Activity against beet armyworm (Spodoptera exiqua) was evaluated as follows. The test is run using concentrations of 400 ppm and 50 ppm. A general purpose lepidoptera artificial diet was diluted to half strength with a 5% non nutritive agar. 8 mL of this diet material was dispensed into one ounce diet cups. One hour prior to treatment, 35 to 40 eggs were dispensed onto the diet surface. The cups were then sprayed with formulated material through a flat-fan nozzle. Treated cups were air dried prior to sealing with plastic caps. The cups were held for 6 days at room temperature. Activity was then rated based on the total number of live and dead larvae, and on the size of live larvae.

Assay [4] concerns Southern corn rootworm (Diabrotica undecimpuctata howardi Barber). As to the kind of experiment: whole plant or invertebrate. In kind it is in vivo. The note with it: 400 ppm, soil concentration of 24 ppm, 3-4 days, read-out: SCRW mortality. How it is done:
as §1
SCRW refers to southern corn rootworm
as §2
Activity on Southern corn rootworm (Diabrotica undecimpuctata howardi Barber) was evaluated by adding one mL of test solution containing a predetermined concentration of test compound to a cup containing a kernel of corn in 16 g of sterile soil. This produces a soil concentration of 24 ppm. After 1.5 to 2 hours of drying, five 4th instar corn rootworm larvae were added to the individual cups. Mortality was measured at 3-4 days by emptying the cup onto a pan and inspecting the soil for live rootworms.

Assay [5] concerns tobacco budworm (Heliothis virescens). The assay is described as follows: Activity against tobacco budworm. As to conditions: Heliothis virescens, 144 h, 6 days, read-out: TBW activity (rated on live and dead larvae and size of live larvae). In kind it is in vivo. How it is done: as §1
TBW refers to tobacco budworm
as §2
Activity against tobacco budworm (Heliothis virescens) was evaluated as follows. A general purpose lepidoptera artificial diet was diluted to half strength with a 5% non nutritive agar. 8 mL of this diet material was dispensed into each one ounce diet cup. One hour prior to treatment 18 to 20 eggs were dispensed onto the diet surface. The cups were then sprayed with formulated material through a flat-fan nozzle. The test was run using concentrations of 400 ppm and 50 ppm. Treated cups were air dried prior to sealing with plastic caps. The cups were held for 6 days at room temperature. Activity was then rated based on the total number of live and dead larvae, and on the size of live larvae.

For assay [6], the system named is Southern corn rootworm (Diabrotica undecimpuctata howardi Barber). As to the kind of experiment: whole plant or invertebrate. The class given is in vivo. As to conditions: 3-4 days, read-out: SCRW mortality.
The test system of assay [7] is cotton aphid (Aphis gossypii). As to the kind of experiment: whole plant or invertebrate. As to conditions: 72 h; for mortality at 50 ppm: read-out: CA activity (percent based on aphids present in plants sprayed with solvent alone), 50 ppm, squash plants, three days after treatment; for mortality at 400 ppm: read-out: CA activity (percent based on aphids present in plants sprayed with solvent alone), 400 ppm, squash plants, three days after treatment.

Assay [8] relates to two spotted spider mite (Tetranychus urticae). As to the kind of experiment: whole plant or invertebrate. As to conditions: 72 h; for mortality at 400 ppm: read-out: TSSM activity (percent based on mites present in plants sprayed with solvent alone), 400 ppm, squash plants, three days after treatment; for mortality at 50 ppm: read-out: TSSM activity (percent based on mites present in plants sprayed with solvent alone), 50 ppm, squash plants, three days after treatment.

The subject of assay [9] is Plasmopara viticola (downy mildew). As to the kind of experiment: Foliar spray fungicide test, Plasmopara viticola (downy mildew) on grape. As to conditions: Plasmopara viticola, foliar, read-out: PLASVI disease control.
The test system of assay [10] is Leptosphaeria nodorum (glume blotch). As to the kind of experiment: Foliar spray fungicide test, Leptosphaeria nodorum (glume blotch) on wheat. The note with it: Parastagonospora nodorum, in Triticum aestivum, foliar, read-out: LETPNO disease control, host wheat, 400 ppm (+++: 100 ppm).
Assay [11] concerns Puccinia recondita tritici (leaf rust). As to the kind of experiment: Foliar spray fungicide test, Puccinia recondita tritici (leaf rust) on wheat. As to conditions: Puccinia recondita, in Triticum aestivum, foliar, read-out: PUCCRT disease control, host wheat, 400 ppm (+++: 100 ppm).
Assay [12] deals with Erysiphe graminis tritici (powdery mildew). The assay is described as follows: Foliar spray fungicide test, Erysiphe graminis tritici (powdery mildew) on wheat. As to conditions: Blumeria graminis, in Triticum aestivum, foliar, read-out: ERYSGT disease control, host wheat, 400 ppm (+++: 100 ppm).
For assay [13], the system named is German cockroach (Blattella germanicus). As to the kind of experiment: whole plant or invertebrate. The note with it: 240 h, ten days, read-out: GECR activity (rated on live and dead insects). The class given is in vivo. How it is done: as §1
GECR refers to German cockroach
as §2
Activity against German cockroach (Blattella germanicus) was evaluated as follows. 8 mL of alfalfa based green insect diet material was dispensed into a one ounce diet cup. The cups were then sprayed with formulated material through a flat-fan nozzle. The test was run using concentrations of 400 ppm and 50 ppm. Treated cups were air dried for 24 hours and infested with five late third or early fourth instar German cockroaches. The cups were capped and held for ten days in an environmental growth chamber at a temperature of […]. Activity was then rated based on the total number of live and dead insects.

For `Fc1cccc2c(OCCc3ccc(Oc4ccc(C(F)(F)F)cn4)cc3)ncnc12` [Compound 27, 8-Fluoro-4-(2-(4-(5-(trifluoromethyl)-2-pyridinyloxy)phenyl)ethoxy)quinazoline], the pest or weed control at 400 µg/mL in assay [1] lay in the range of 90 to 100%; in assay [9], 90 to 100%; in assay [10] it was 0 to 19%; in [11], 90 to 100%; in assay [12] it was 90 to 100%. For the same molecule, the mortality at 50 ppm in [2] stood at 100%; in assay [6] it was 100%; in assay [7], 90%. Besides, the mortality at 400 ppm in assay [2], in assay [7] and in assay [8] was 100% in each case. The pest or weed control at 50 ppm in assay [3] stood at 100%. The pest or weed control at 400 ppm in assay [3] and in assay [5] was 100% in each case. The mortality at 24 ppm in [4] amounted to 100%.

Regarding `Fc1cccc2c(NCCc3ccc(Oc4ccc(C(F)(F)F)cn4)cc3)ncnc12` [Compound 28, 8-Fluoro-4-(2-(4-(5-(trifluoromethyl)-2-pyridinyloxy)phenyl)ethylamino)quinazoline], the pest or weed control at 400 µg/mL in assay [1] fell in the range of 20 to 89%; in assay [9], 90 to 100%; in [10], 90 to 100%; in [11], 90 to 100%; in assay [12] it was 90 to 100%. In addition, the mortality at 50 ppm came out at 100% in assay [2], 0% in assay [13], 100% in assay [7] and 100% in assay [8]. For the same molecule, the mortality at 400 ppm in assay [2] was determined as 100%; in [13], 80%; in assay [7], 100%; in [8] it was 100%. In addition, the pest or weed control at 50 ppm in assay [3] and in assay [5] was 100% in each case. Further, the pest or weed control at 400 ppm in assay [3] and in assay [5] was 100% in each case. In [4], the mortality at 24 ppm was 0%.

Consider `FC(F)(F)c1ccc(Oc2ccc(CCNc3ncnc4ccccc34)cc2)nc1` [Compound 29], for which the pest or weed control at 400 µg/mL lay within 90 to 100% in assay [1]; 90 to 100% in assay [9]; 20 to 89% in [10]; 90 to 100% in [11]; 90 to 100% in assay [12]. In addition, the mortality at 50 ppm in assay [2] came to 100%; in assay [13] it was 0%; in [7] it was 90%; in assay [8] it was 100%. For the same molecule, the mortality at 400 ppm amounted to 100% in [2], 20% in [13], 100% in [7] and 100% in [8]. In addition, the pest or weed control at 50 ppm in [3] and in [5] was 100% each time. Further, the pest or weed control at 400 ppm in [3] and in assay [5] was 100% each time. Moreover, in assay [4], the mortality at 24 ppm turned out to be 100%.

In the case of `Fc1cccc2c(OCCc3ccc(Oc4cc(C(Cl)(Cl)Cl)cc(Cl)n4)cc3)ncnc12` [Compound 34], the pest or weed control at 400 µg/mL in assay [1] was 20 to 89%; in assay [9], 0 to 19%; in [10] it was 0 to 19%; in [11], 20 to 89%; in assay [12], 0 to 19%. The mortality at 50 ppm in assay [2] was 40%; in assay [13] it was 0%; in [7], 0%; in [8], 0%. For the same molecule, the mortality at 400 ppm turned out to be 20% in assay [2], 0% in assay [13], 0% in assay [7] and 0% in assay [8]. The pest or weed control at 50 ppm in [3] and in assay [5] was 0% in each case. Also, the results for the pest or weed control at 400 ppm in [3] and in assay [5] were 100% and 80%, respectively. Besides, the mortality at 24 ppm in [4] worked out at 0%.

Consider `COc1cc(C(Cl)(Cl)Cl)cc(Oc2ccc(CCNc3ncnc4c(F)cccc34)cc2)n1` [Compound 35], for which the pest or weed control at 400 µg/mL lay in the range of 0 to 19% in assay [1]; 0 to 19% in assay [9]; 0 to 19% in assay [10]; 90 to 100% in assay [11]; 0 to 19% in assay [12]. In addition, the mortality at 50 ppm in assay [2], in [7] and in assay [8] was 0% throughout. Moreover, the mortality at 400 ppm in assay [2] was 80%; in [13], 0%; in [7], 0%; in assay [8], 0%. Also, the figures for the pest or weed control at 50 ppm in assay [3] and in assay [5] were 100% and 0%, respectively. Also, the pest or weed control at 400 ppm in assay [3] stood at 100%; in [5] it was 80%. For the same molecule, the mortality at 24 ppm in [4] worked out at 0%.

In the case of `c1cnc(Oc2ccc(CCOc3ncnc4ccccc34)cc2)nc1` [Compound 45], the pest or weed control at 400 µg/mL is 90 to 100% in [1]; 90 to 100% in assay [9]; 0 to 19% in assay [10]; 90 to 100% in assay [11]; 90 to 100% in assay [12]. Besides, the mortality at 50 ppm in assay [2] is 60%; in [13] it was 0%; in [7], 100%; in [8], 40%. The mortality at 400 ppm in assay [2] was found to be 40%; in [13], 20%; in assay [7], 100%; in assay [8], 60%. In addition, the pest or weed control at 50 ppm in assay [3] and in assay [5] was 100% each time. For the same molecule, the pest or weed control at 400 ppm in assay [3] and in assay [5] was 100% each time. In assay [4], the mortality at 24 ppm came to 0%.

(Values after patent publication US5326766A, “4-(2-(4-(2-pyridinyloxy)phenyl)ethoxy)quinazoline and analogues thereof” (priority 1992, dated 1994).)
